# According to patent publication US9579322B2, “Methods for treating neurologic disorders” (EIP Pharma, LLC, priority 2014, dated 2017):
# Tests used:
# [1] = system: sensory-motor recovery after tMCAO; assay: Transient MCAO in rats, functional recovery; type: in vivo, Sprague-Dawley rats; details: for change in cylinder test performance from day 7 to day 35: relative to vehicle; for functional recovery, 7-point neuroscore / functional recovery, 20-point neuroscore / functional recovery, limb placing: day 3 to day 42, versus vehicle
# Method: The objective of this study was to investigate whether chronic twice-a-day treatment with VX-745 started at 48 hours post-occlusion provides sensory-motor recovery and neuroprotection in rats subjected to 120 min middle cerebral artery occlusion (tMCAO) at day 0. Seven and 20-point Neuroscore tests were performed to study sensory-motor deficits and general condition on days 1, 3, 7, 14, 21, 28, 35 and 42 post-ischemia. Cylinder test was performed on days 7, 14, 21 and 35 post-ischemia and limb-placing tests on days 1, 3, 7, 14, 21, 28, 35 and 42. Infarct volume was evaluated by T2-MRI at 24 h post-ischemia and rats were allocated to treatment groups based on the lesion data on day 2 and treatment was started after MRI on day 2. Methods—Male Sprague-Dawley rats were subjected to twice-a-day chronic treatment with VX-745 starting at 48 h after 120 min tMCAO. Lesion size was measured at 24 h with MRI and rats were allocated to dosing groups on day 2 (tMCAO performed on day 0) based on lesion size and limb placing results. Rats were treated with 2 different doses and underwent sensorimotor behavioral test throughout the experiment. Seven and 20-point Neuroscore and limb placing tests were performed to study sensory-motor deficits and general condition before occlusion and on days 1, 3, 7, 14, 21, 28, 35 and 42 post-ischemia. Cylinder test was performed before occlusion and on days 7, 14, 21 and 35 post-ischemia. Animals. Altogether 45 adult male Sprague Dawley rats, purchased from Charles River Laboratories (Sulzfeld, Germany), and weighing 250-300 g were used for the experiment. Animals were housed at a standard temperature (22±1° C.) and in a light-controlled environment (lights on from 7 am to 8 pm) with ad libitum access to food and water. • Group A: 15 tMCAO animals treated twice-a-day with vehicle from day 2 to 42 (5 ml/kg, p.o) • Group B: 15 tMCAO animals treated twice-a-day with VX-745 from day 2 to 42 (1.5 mg/kg, p.o). • Group C: 15 tMCAO animals treated twice-a-day with VX-745 from day 2 to 42 (4.5 mg/kg, p.o). Transient MCAO Transient focal cerebral ischemia was produced by MCA occlusion at Day 0 in male Sprague-Dawley rats according to Koizumi with modifications (Koizumi et al. Jpn. J. Stroke 8:1-8, 1986). The rats were anesthetized with 5% isoflurane (in 70% N2O and 30% O2; flow 300 ml/min). During the operation the concentration of anesthetic was reduced to 1.0-2.0%. The rectal temperature was maintained at 37.0±1.0° C. with a homeothermic blanket system. After midline skin incision, the right common carotid artery (CCA) was exposed, and the external carotid artery (ECA) was ligated distal from the carotid bifurcation. A 0.22-mm diameter monofilament nylon thread, with blunted tip, was inserted 22-23 mm into the internal carotid artery (ICA) up to the origin of MCA. After the monofilament insertion, CCA was occluded for 2 hours with a suture. After 120 min of ischemia, the MCA blood flow was restored by removal of the filament and the suture. The wound was closed, disinfected, and the animals were allowed to recover from anesthesia. The rats were carefully monitored for possible post-surgical complications after the tMCAO. The rats were fed with standard laboratory diet suspended in tap water after the tMCAO. To prevent dehydration all rats were given an i.p. injection of saline (4 mL per rat) once or twice-a-day as needed. Drug Delivery. VX-745 or vehicle was administered p.o. (5 ml/kg) starting after MRI at 48 h post-ischemia (i.e. Day 2) and continued twice-a day (morning and afternoon) until endpoint day 42. MRI acquisitions in vivo for all rats were performed at 24 h after tMCAO (i.e. […] Rats were allocated to treatment groups on day 2 based on the lesion data and treatment was started on day 2. A 20-point Neuroscore test was used to assess post-ischemic motor and behavioral deficits. The neurological test was conducted by a blinded investigator at pre-stroke (baseline) and on days 1, 3, 7, 14, 21, 28, 35 and 42 post-ischemia. […]
# knee degeneration = details: rats, 50 mg/kg, compared to control animals; cited from earlier work
# [2] = system: cytokine (IL-1β or TNFα) production in whole blood; details: inhibition of cytokine production (anti-inflammatory activity); cited from earlier work
# PSD95 = PSD95 ELISA of cortex and hippocampus extracts; type: in vivo, Fischer rats
# Method: The primary objective of this study was to investigate whether pre-treatment with compound VX-745 alleviates cognitive defects in aged rats. Plasma concentration of VX-745 was determined with LC-MS/MS at the end of the study from samples collected 1 hour post dosing. In addition, protein levels of PSD95 in ventral cortex and hippocampus, and levels of IL-1β in the hippocampus were analyzed by specific ELISA assays to evaluate the potential anti-inflammatory effects of VX-745 in the brain
# One hour after the last vehicle or VX-745 morning dosing, the animals (10 per dosing group) were deeply anesthetized with pentobarbital and blood samples were collected by cardiac puncture. 500 μl of blood was collected into EDTA microtubes, centrifuged, and plasma collected. The brains were perfused with heparinized saline, and the brains were collected. Right hemisphere was post-fixed by immersion in 4% PFA in 0.1 M PB for 24 h. After a brief wash with phosphate buffer, the hemisphere was cryoprotected in 30% sucrose in PB for 2-3 days, after which it was frozen on liquid nitrogen and stored at −80° C. for optional future immunohistochemical analysis. […]
# Cortex and hippocampal soluble extracts were analyzed for PSD95 content using an ELISA kit (Cusabio Biotech Ltd., #CSB-EL006938RA, Lot 031154387), while the levels of Il-1β were analyzed only from hippocampus (R&D Systems, #RLB00, Lot 308544).
# hyperalgesic response = details: cited from earlier work
# [3] = system: rheumatoid arthritis (RA); details: cited from earlier work
# [4] = 250 mg b.i.d, phase 2 clinical, RA patients
substance,measurement,setting,value
VX-745,change in cylinder test performance from day 7 to day 35,[1]; 1.5 mg/kg p.o. twice-a-day,"a trend (p=0.088, two-sided t-test) towards increased improvement"
same,"functional recovery, 7-point neuroscore",[1]; 1.5 mg/kg,not further improve functional recovery
same,"functional recovery, 20-point neuroscore",[1]; 1.5 mg/kg,not further improve functional recovery
same,"functional recovery, limb placing",[1]; 1.5 mg/kg,not further improve functional recovery
same,change in cylinder test performance from day 7 to day 35,[1]; 4.5 mg/kg p.o. twice-a-day,not evident
same,"functional recovery, 7-point neuroscore",[1]; 4.5 mg/kg,not further improve functional recovery
same,"functional recovery, 20-point neuroscore",[1]; 4.5 mg/kg,not further improve functional recovery
same,"functional recovery, limb placing",[1]; 4.5 mg/kg,not further improve functional recovery
same,"functional recovery, 1.5 mg/kg group compared with 4.5 mg/kg group","[1]; all measures, change analysis",consistently better
same,inhibition of knee degeneration,knee degeneration,statistically significant inhibition of knee degeneration
same,whole blood IC50,[2],65 to 80 ng/mL
same,PSD95 protein levels,PSD95; 1.5 mg/kg,no evident effects
same,PSD95 protein levels,"PSD95; 4.5 mg/kg versus aged vehicle-treated group, p=0.063 Mann-Whitney",statistical trend towards higher levels of PSD95
same,effect on hyperalgesia at the 3 mg/kg dose,hyperalgesic response; 3 mg/kg,minimal effect
same,inhibition of hyperalgesic response,"hyperalgesic response; rats, 30 mg/kg, 10 mg/kg and 3 mg/kg",significant inhibition of hyperalgesic response
same,adverse events in patients,[3]; [4],"adverse events, including gastrointestinal effects such as diarrhea and abdominal pain, and elevations in liver transaminases"
same,inflammatory markers and clinical improvement,[3]; [4],significant reduction in inflammatory markers and clinical improvement
same,mean plasma drug concentrations,"[3]; 250 mg b.i.d, phase 2 clinical",approximately 75 ng/m
same,adverse neurological effects in humans,[3]; humans,not observed
same,mean blood concentration in the treatment of rheumatoid arthritis,[3]; treatment of rheumatoid arthritis,approximately 75 ng/mL
